± gives the expanded uncertainty stated by the source.
Test: activity coefficient (dimensionless); of the first substance listed, at infinite dilution; xn = mol fraction of the nth substance listed
Conditions: 101 kPa, Liquid, Chromatography, x1 = 0

Row | Compound | activity coefficient (318.15 K) | activity coefficient (328.15 K) | activity coefficient (338.15 K) | activity coefficient (348.15 K) | activity coefficient (358.15 K) | activity coefficient (368.15 K)
1 | CCC(C)CC [3-methylpentane] + COCC[N+]1(C)CCCC1.O=S(=O)([N-]S(=O)(=O)C(F)(F)F)C(F)(F)F | 16.6 ± 1.1 | 15.6 ± 1.1 | 14.8 ± 1 | 14.1 ± 1 | 13.5 ± 0.9 | 12.8 ± 0.9
2 | C#CCCCCC [1-heptyne] + COCC[N+]1(C)CCCC1.O=S(=O)([N-]S(=O)(=O)C(F)(F)F)C(F)(F)F | 4.75 ± 0.32 | 4.71 ± 0.32 | 4.66 ± 0.32 | 4.62 ± 0.31 | 4.58 ± 0.31 | 4.55 ± 0.31
3 | CC(C)O [propan-2-ol] + COCC[N+]1(C)CCCC1.O=S(=O)([N-]S(=O)(=O)C(F)(F)F)C(F)(F)F | 2 ± 0.14 | 1.83 ± 0.12 | 1.67 ± 0.11 | 1.54 ± 0.1 | 1.43 ± 0.09 | 1.34 ± 0.09
4 | C1CCCCC1 [cyclohexane] + COCC[N+]1(C)CCCC1.O=S(=O)([N-]S(=O)(=O)C(F)(F)F)C(F)(F)F | 11.1 ± 0.8 | 10.4 ± 0.7 | 9.69 ± 0.66 | 9.22 ± 0.63 | 8.65 ± 0.59 | 8.23 ± 0.56
5 | C1CCCC1 [cyclopentane] + COCC[N+]1(C)CCCC1.O=S(=O)([N-]S(=O)(=O)C(F)(F)F)C(F)(F)F | 7.52 ± 0.51 | 7.19 ± 0.49 | 6.85 ± 0.47 | 6.54 ± 0.45 | 6.26 ± 0.43 | 5.98 ± 0.41
6 | CCOC(C)=O [ethyl acetate] + COCC[N+]1(C)CCCC1.O=S(=O)([N-]S(=O)(=O)C(F)(F)F)C(F)(F)F | 0.95 ± 0.06 | 0.97 ± 0.06 | 0.98 ± 0.06 | 1 ± 0.06 | 1.02 ± 0.06 | 1.03 ± 0.06
7 | CCOC(C)(C)C [2-ethoxy-2-methylpropane] + COCC[N+]1(C)CCCC1.O=S(=O)([N-]S(=O)(=O)C(F)(F)F)C(F)(F)F | 6.31 ± 0.43 | 6.19 ± 0.42 | 6.12 ± 0.42 | 6.03 ± 0.41 | 5.94 ± 0.4 | 5.85 ± 0.4
8 | CCCC(=O)OC [methyl butanoate] + COCC[N+]1(C)CCCC1.O=S(=O)([N-]S(=O)(=O)C(F)(F)F)C(F)(F)F | 1.29 ± 0.08 | 1.31 ± 0.09 | 1.33 ± 0.09 | 1.35 ± 0.09 | 1.36 ± 0.09 | 1.38 ± 0.09
9 | CO [methanol] + COCC[N+]1(C)CCCC1.O=S(=O)([N-]S(=O)(=O)C(F)(F)F)C(F)(F)F | 1.37 ± 0.09 | 1.27 ± 0.08 | 1.18 ± 0.08 | 1.1 ± 0.07 | 1.03 ± 0.06 | 0.972 ± 0.061
10 | CCCO [propan-1-ol] + COCC[N+]1(C)CCCC1.O=S(=O)([N-]S(=O)(=O)C(F)(F)F)C(F)(F)F | 2.2 ± 0.15 | 2.02 ± 0.14 | 1.86 ± 0.13 | 1.71 ± 0.11 | 1.58 ± 0.1 | 1.48 ± 0.1
11 | C1CCOC1 [tetrahydrofuran] + COCC[N+]1(C)CCCC1.O=S(=O)([N-]S(=O)(=O)C(F)(F)F)C(F)(F)F | 0.81 ± 0.05 | 0.83 ± 0.05 | 0.84 ± 0.05 | 0.86 ± 0.06 | 0.87 ± 0.06 | 0.88 ± 0.06
12 | CC(C)CC(C)(C)C [2,2,4-trimethylpentane] + COCC[N+]1(C)CCCC1.O=S(=O)([N-]S(=O)(=O)C(F)(F)F)C(F)(F)F | 26.9 ± 1.8 | 25.1 ± 1.7 | 23.7 ± 1.6 | 22.3 ± 1.5 | 21.2 ± 1.4 | 20 ± 1.4
13 | Cc1ccccc1C [1,2-dimethylbenzene] + COCC[N+]1(C)CCCC1.O=S(=O)([N-]S(=O)(=O)C(F)(F)F)C(F)(F)F | 1.94 ± 0.13 | 1.96 ± 0.13 | 1.97 ± 0.13 | 1.98 ± 0.13 | 1.99 ± 0.14 | 2 ± 0.14
14 | CCOCC [diethyl ether] + COCC[N+]1(C)CCCC1.O=S(=O)([N-]S(=O)(=O)C(F)(F)F)C(F)(F)F | 2.79 ± 0.19 | 2.79 ± 0.19 | 2.78 ± 0.19 | 2.78 ± 0.19 | 2.78 ± 0.19 | 2.78 ± 0.19
15 | CCO [ethanol] + COCC[N+]1(C)CCCC1.O=S(=O)([N-]S(=O)(=O)C(F)(F)F)C(F)(F)F | 1.77 ± 0.12 | 1.63 ± 0.11 | 1.48 ± 0.1 | 1.38 ± 0.09 | 1.28 ± 0.08 | 1.2 ± 0.08
